Experimental findings from US20240270740A1, “INHIBITORS OF CYCLIC GMP-AMP SYNTHASE AND USES THEREOF” (Ventus Therapeutics U.S., Inc., priority 2022, published 2024) are described below.

The target in experiment [1] is T1, hcGAS (Homo sapiens, UniProt Q8N884). Put plainly: hcGAS Kinase-Glo assay (ATP depletion). The class given is biochemical. The following applies: for IC50: 40 nM hcGAS, 100 μM ATP, 100 μM GTP, 25 nM dsDNA, 3 h incubation. A digest of the protocol: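 Human cGAS activity measured indirectly as ATP depletion by Kinase-Glo luminescence, following the Lama et al. method with modified conditions. Output is IC50, binned into potency categories.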
T1 sequence (Q8N884 whole entry): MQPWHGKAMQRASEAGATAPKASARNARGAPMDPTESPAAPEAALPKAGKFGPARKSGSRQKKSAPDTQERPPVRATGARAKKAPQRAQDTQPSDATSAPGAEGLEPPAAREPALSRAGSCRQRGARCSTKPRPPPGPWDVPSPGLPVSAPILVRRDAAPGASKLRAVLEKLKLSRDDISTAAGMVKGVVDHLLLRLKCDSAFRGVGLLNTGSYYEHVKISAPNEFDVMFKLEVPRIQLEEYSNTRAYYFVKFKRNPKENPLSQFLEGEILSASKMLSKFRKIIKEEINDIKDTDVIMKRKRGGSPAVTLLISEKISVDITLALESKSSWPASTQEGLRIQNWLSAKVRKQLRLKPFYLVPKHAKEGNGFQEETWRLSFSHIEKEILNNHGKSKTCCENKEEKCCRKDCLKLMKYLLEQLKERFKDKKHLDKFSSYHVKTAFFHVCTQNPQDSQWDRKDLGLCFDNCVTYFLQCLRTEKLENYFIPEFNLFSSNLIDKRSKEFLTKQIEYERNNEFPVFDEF
Background: Kinase-Glo measures the ATP left after a reaction by luminescence.

Experiment [2] addresses T1, hcGAS. Put plainly: hcGAS LCMS assay (direct measurement of cGAMP production). The class given is biochemical. The following applies: for IC50: 0.5 nM hcGAS, 100 μM ATP, 100 μM GTP, 25 nM dsDNA, 4 h incubation. The method, boiled down:
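Direct LC/MS readout of cGAMP formed: 4-h enzyme–substrate incubation with compound, stopped by acetonitrile/water quench carrying isotope-labelled cGAMP (0.15 mM) as standard. Potency reported as IC50 ranges.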

[3] abbreviates: compared with Compound 103 (without —CH2OCH3).

As to `COc1c(N[C@H]2CCOC2)cc(C(=O)Nc2nnc(-n3nccc3C)s2)oc1=O` [Compound 185, (S)-3-methoxy-N-(5-(5-methyl-1H-pyrazol-1-yl)-1,3,4-thiadiazol-2-yl)-2-oxo-4-((tetrahydrofuran-3-yl)amino)-2H-pyran-6-carboxamide], the IC50 (in general, the concentration that inhibits the measured activity by half) against hcGAS [1] lay in the range of 30 to 100 nM; against hcGAS [2], 5 to 20 nM.

In the case of `COc1c(N2CC[C@H](OC)C2)cc(C(=O)Nc2nnc(-n3nccc3C)s2)oc1=O` [Compound 57, (S)-3-methoxy-4-(3-methoxypyrrolidin-1-yl)-N-(5-(5-methyl-1H-pyrazol-1-yl)-1,3,4-thiadiazol-2-yl)-2-oxo-2H-pyran-6-carboxamide], the IC50 on hcGAS [1] was 10 to 30 nM; against hcGAS [2], 5 to 20 nM.

Take `COc1c(NCC(C)(C)OC)cc(C(=O)Nc2nnc(-n3nccc3C)s2)oc1=O` [Compound 120, 3-methoxy-4-((2-methoxy-2-methylpropyl)amino)-N-(5-(5-methyl-1H-pyrazol-1-yl)-1,3,4-thiadiazol-2-yl)-2-oxo-2H-pyran-6-carboxamide]: the IC50 on hcGAS [1] lay in the range of 10 to 30 nM; on hcGAS [2], 5 to 20 nM.

Turning to `COc1c(N[C@@H]2CC[C@H]2OC)cc(C(=O)Nc2nnc(-n3nccc3C)s2)oc1=O` (racemic) [Rac-36, 3-methoxy-4-(((1R,2R)-2-methoxycyclobutyl)amino)-N-(5-(5-methyl-1H-pyrazol-1-yl)-1,3,4-thiadiazol-2-yl)-2-oxo-2H-pyran-6-carboxamide], the IC50 against hcGAS [1] was 10 to 30 nM; against hcGAS [2], 5 to 20 nM.

Regarding `COCC(COC)Nc1cc(C(=O)Nc2nnc(-n3nccc3C)s2)oc(=O)c1OC` [Compound 10, 4-((1,3-dimethoxypropan-2-yl)amino)-3-methoxy-N-(5-(5-methyl-1H-pyrazol-1-yl)-1,3,4-thiadiazol-2-yl)-2-oxo-2H-pyran-6-carboxamide], the IC50 against hcGAS [1] fell in the range of 10 to 30 nM; on hcGAS [2] it was 5 to 20 nM.

On to `COCCNc1cc(C(=O)Nc2nnc(-c3c(Cl)ccn3C)s2)oc(=O)c1OC` [Compound 127, N-(5-(3-chloro-1-methyl-1H-pyrrol-2-yl)-1,3,4-thiadiazol-2-yl)-3-methoxy-4-((2-methoxyethyl)amino)-2-oxo-2H-pyran-6-carboxamide], for which the IC50 against hcGAS [1] was 10 to 30 nM; at hcGAS [2] it was under 5 nM.

Turning to `COc1c(N(C)C)cc(C(=O)Nc2nnc(-n3nccc3C)s2)oc1=O` [Compound 106, 4-(dimethylamino)-3-methoxy-N-(5-(5-methyl-1H-pyrazol-1-yl)-1,3,4-thiadiazol-2-yl)-2-oxo-2H-pyran-6-carboxamide], the IC50 against hcGAS [1] fell in the range of 30 to 100 nM; on hcGAS [2], 20 to 60 nM.

For `COc1c(N2CC[C@@H](OC)C2)cc(C(=O)Nc2nnc(-n3nccc3C)s2)oc1=O` [Compound 31, (R)-5-methoxy-4-(3-methoxypyrrolidin-1-yl)-N-(5-(5-methyl-1H-pyrazol-1-yl)-1,3,4-thiadiazol-2-yl)-6-oxo-6H-pyran-2-carboxamide], the IC50 on hcGAS [1] was 10 to 30 nM; against hcGAS [2] it was 5 to 20 nM.

Take `COc1c(NC23CC(C2)C3)cc(C(=O)Nc2nnc(-n3nccc3C)s2)oc1=O` [Compound 182, 4-(bicyclo[1.1.1]pentan-1-ylamino)-3-methoxy-N-(5-(5-methyl-1H-pyrazol-1-yl)-1,3,4-thiadiazol-2-yl)-2-oxo-2H-pyran-6-carboxamide]: the values for the IC50 against hcGAS [1] and against hcGAS [2] were 10 to 30 nM and 5 to 20 nM, respectively.

Turning to `COc1c(N2CC[C@@H](O)C2)cc(C(=O)Nc2nnc(-n3nccc3C)s2)oc1=O` [Compound 30, (R)-4-(3-hydroxypyrrolidin-1-yl)-3-methoxy-N-(5-(5-methyl-1H-pyrazol-1-yl)-1,3,4-thiadiazol-2-yl)-2-oxo-2H-pyran-6-carboxamide], the figures for the IC50 at hcGAS [1] and at hcGAS [2] were 10 to 30 nM and 5 to 20 nM, respectively.

On to `COc1c(N[C@H]2CCC[C@@H]2OC)cc(C(=O)Nc2nnc(-n3nccc3C)s2)oc1=O` (racemic) [Rac-107, 3-methoxy-4-(((1S,2S)-2-methoxycyclopentyl)amino)-N-(5-(5-methyl-1H-pyrazol-1-yl)-1,3,4-thiadiazol-2-yl)-2-oxo-2H-pyran-6-carboxamide], for which the IC50 was under 10 nM at hcGAS [1] and 5 to 20 nM on hcGAS [2].

Take `COc1c(NCC(C)(C)O)cc(C(=O)Nc2nnc(-n3nccc3C)s2)oc1=O` [Compound 33, 4-(2-hydroxy-2-methylpropylamino)-5-methoxy-N-(5-(5-methyl-1H-pyrazol-1-yl)-1,3,4-thiadiazol-2-yl)-6-oxo-6H-pyran-2-carboxamide]: the IC50 against hcGAS [1] lay within 10 to 30 nM; at hcGAS [2], 20 to 60 nM.

`COc1c(NC23CC(C(C)(C)O)(C2)C3)cc(C(=O)Nc2nnc(-n3nccc3C)s2)oc1=O` [Compound 117, 4-((3-(2-hydroxypropan-2-yl)bicyclo[1.1.1]pentan-1-yl)amino)-3-methoxy-N-(5-(5-methyl-1H-pyrazol-1-yl)-1,3,4-thiadiazol-2-yl)-2-oxo-2H-pyran-6-carboxamide]: the results for the IC50 against hcGAS [1] and on hcGAS [2] were 10 to 30 nM and 5 to 20 nM, respectively.

In the case of `COCCNc1cc(C(=O)Nc2nnc(-c3sccc3Cl)s2)oc(=O)c1OC` [Compound 146, N-[5-(3-chlorothiophen-2-yl)-1,3,4-thiadiazol-2-yl]-5-methoxy-4-[(2-methoxyethyl)amino]-6-oxopyran-2-carboxamide], the figures for the IC50 against hcGAS [1] and against hcGAS [2] were 10 to 30 nM and 5 to 20 nM, respectively.

Regarding `COc1c(NCc2ccccc2)cc(C(=O)Nc2nnc(-n3nccc3C)s2)oc1=O` [Compound 103, 4-(benzylamino)-3-methoxy-N-(5-(5-methyl-1H-pyrazol-1-yl)-1,3,4-thiadiazol-2-yl)-2-oxo-2H-pyran-6-carboxamide], the 50% inhibitory concentration (IC50) against hcGAS [1] fell in the range of 30 to 100 nM; on hcGAS [2] it was 5 to 20 nM.

In the case of `COc1c(NC(C)C)cc(C(=O)Nc2nnc(-c3c(Cl)ccn3C)s2)oc1=O` [Compound 131, N-(5-(3-chloro-1-methyl-1H-pyrrol-2-yl)-1,3,4-thiadiazol-2-yl)-4-(isopropylamino)-3-methoxy-2-oxo-2H-pyran-6-carboxamide], the IC50 fell in the range of 10 to 30 nM on hcGAS [1] and 5 to 20 nM against hcGAS [2].

In the case of `COc1c(N2C[C@H](OC)[C@H](OC)C2)cc(C(=O)Nc2nnc(-n3nccc3C)s2)oc1=O` [Compound 59, 4-((3S,4R)-3,4-dimethoxypyrrolidin-1-yl)-3-methoxy-N-R(5-(5-methyl-1H-pyrazol-1-yl)-1,3,4-thiadiazol-2-yl)-2-oxo-2H-pyran-6-carboxamide], the IC50 lay within 10 to 30 nM against hcGAS [1] and 5 to 20 nM against hcGAS [2].

`COc1c(NCCO)cc(C(=O)Nc2nnc(-n3nccc3C)s2)oc1=O` [Compound 130, 4-((2-hydroxyethyl)amino)-3-methoxy-N-(5-(5-methyl-1H-pyrazol-1-yl)-1,3,4-thiadiazol-2-yl)-2-oxo-2H-pyran-6-carboxamide]: the figures for the IC50 against hcGAS [1] and at hcGAS [2] were 30 to 100 nM and 20 to 60 nM, respectively.

Regarding `COc1c(N[C@@H]2CCC[C@@H]2O)cc(C(=O)Nc2nnc(-n3nccc3C)s2)oc1=O` [Compound 112, 4-(((1R,2S)-2-hydroxycyclopentyl)amino)-3-methoxy-N-(5-(5-methyl-1H-pyrazol-1-yl)-1,3,4-thiadiazol-2-yl)-2-oxo-2H-pyran-6-carboxamide], the IC50 was under 10 nM on hcGAS [1] and under 5 nM against hcGAS [2].

`COC[C@H](Nc1cc(C(=O)Nc2nnc(-n3nccc3C)s2)oc(=O)c1OC)c1ccccc1` [Compound 114, (R)-3-methoxy-4-((2-methoxy-1-phenylethyl)amino)-N-(5-(5-methyl-1H-pyrazol-1-yl)-1,3,4-thiadiazol-2-yl)-2-oxo-2H-pyran-6-carboxamide]: the IC50 against hcGAS [1] is under 10 nM; against hcGAS [2], under 5 nM. Also, the “inhibitory activity in hcGAS Kinase glo assay” value on hcGAS [1] (setting [3]) was “improved inhibitory activity”. Moreover, on hcGAS [2] (setting [3]), the “inhibitory activity in hcGAS LCMS assay” value is on record as “improved inhibitory activity”.

In the case of `COc1c(N[C@H]2CC[C@H](O)C2)cc(C(=O)Nc2nnc(-n3nccc3C)s2)oc1=O` (racemic) [Rac-6, 4-(((1S,3S)-3-hydroxycyclopentyl)amino)-3-methoxy-N-(5-(5-methyl-1H-pyrazol-1-yl)-1,3,4-thiadiazol-2-yl)-2-oxo-2H-pyran-6-carboxamide], the IC50 on hcGAS [1] fell in the range of 10 to 30 nM; against hcGAS [2] it was 5 to 20 nM.

Consider `COc1c(N2C[C@H](OC)[C@@H](O)C2)cc(C(=O)Nc2nnc(-n3nccc3C)s2)oc1=O` (racemic) [Rac-91, 4-((3S,4S)-3-hydroxy-4-methoxypyrrolidin-1-yl)-3-methoxy-N-(5-(5-methyl-1H-pyrazol-1-yl)-1,3,4-thiadiazol-2-yl)-2-oxo-2H-pyran-6-carboxamide], for which the IC50 on hcGAS [1] was under 10 nM; on hcGAS [2], 5 to 20 nM.

On to `COC[C@H](C)Nc1cc(C(=O)Nc2nnc(-n3nccc3C)s2)oc(=O)c1OC` [Compound 64, (S)-3-methoxy-4-((1-methoxypropan-2-yl)amino)-N-(5-(5-methyl-1H-pyrazol-1-yl)-1,3,4-thiadiazol-2-yl)-2-oxo-2H-pyran-6-carboxamide], for which the IC50 against hcGAS [1] was in the range of 30 to 100 nM; on hcGAS [2], 20 to 60 nM.

For the compound `COc1c(N[C@@H]2CCC[C@@H]2O)cc(C(=O)Nc2nnc(-c3sccc3Cl)s2)oc1=O` (racemic) [Rac-7, N-(5-(3-chlorothiophen-2-yl)-1,3,4-thiadiazol-2-yl)-4-(((cis)-2-hydroxycyclopentyl)amino)-3-methoxy-2-oxo-2H-pyran-6-carboxamide], the IC50 was under 10 nM against hcGAS [1] and under 5 nM on hcGAS [2].

Turning to `COc1c(NC[C@@H]2CCCO2)cc(C(=O)Nc2nnc(-n3nccc3C)s2)oc1=O` [Compound 66, (S)-3-methoxy-N-(5-(5-methyl-1H-pyrazol-1-yl)-1,3,4-thiadiazol-2-yl)-2-oxo-4-(((tetrahydrofuran-2-yl)methyl)amino)-2H-pyran-6-carboxamide], the IC50 at hcGAS [1] was 10 to 30 nM; on hcGAS [2], 5 to 20 nM.
